Like-named read-outs stand apart in the source and are kept apart here. Where a SMILES comes first, the peptide text is derived from it. Bridges are numbered along the chain shown (N, C = ends).
Experiments:
hα6/α3β4V115I = target: T1, hα6/α3β4V115I (Homo sapiens, UniProt P30926+Q15825, V141I); assay: cell-based
T1 construct: splicing the N-terminal extracellular domain of the α6 subunit with the α3 subunit; mutant made by PCR mutagenesis; host or cells: Xenopus laevis oocytes injected with cRNA
T1 sequence (Q15825 26-239 limits assumed): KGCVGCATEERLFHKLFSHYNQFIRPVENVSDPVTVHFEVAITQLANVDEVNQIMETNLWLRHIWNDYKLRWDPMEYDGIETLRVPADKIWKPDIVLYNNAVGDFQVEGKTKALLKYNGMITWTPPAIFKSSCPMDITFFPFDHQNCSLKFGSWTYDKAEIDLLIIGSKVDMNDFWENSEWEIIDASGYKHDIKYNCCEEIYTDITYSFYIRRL
T1 sequence (P30926 22-498 V141I): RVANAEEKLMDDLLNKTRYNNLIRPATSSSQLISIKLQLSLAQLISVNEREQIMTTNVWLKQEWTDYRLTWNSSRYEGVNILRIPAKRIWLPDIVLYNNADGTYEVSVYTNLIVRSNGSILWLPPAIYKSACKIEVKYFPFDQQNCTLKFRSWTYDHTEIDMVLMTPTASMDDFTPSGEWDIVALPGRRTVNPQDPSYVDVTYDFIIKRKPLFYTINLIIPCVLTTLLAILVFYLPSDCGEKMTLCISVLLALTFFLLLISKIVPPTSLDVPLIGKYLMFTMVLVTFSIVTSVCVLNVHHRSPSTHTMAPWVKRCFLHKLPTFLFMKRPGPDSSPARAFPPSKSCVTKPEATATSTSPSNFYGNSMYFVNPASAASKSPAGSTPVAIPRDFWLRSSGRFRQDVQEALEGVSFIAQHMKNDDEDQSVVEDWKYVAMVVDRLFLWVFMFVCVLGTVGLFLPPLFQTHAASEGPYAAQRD

h[α6K81N/α3]β4 [1] = target: T2, h[α6K81N/α3]β4 (Homo sapiens, UniProt P30926+P32297+Q15825, K114N); type: cell-based
T2 construct: formed by splicing the N-terminal extracellular domain of the α6 subunit with the α3 subunit; fusion partner: remainder of the human α3 subunit (CHRNA3); expressed in transfected cells; host or cells: Xenopus laevis oocytes injected with cRNA

h[α6K81N/α3]β4 [2] = type: cell-based, human
h[α6N58K/α3]β4 = target: T3, h[α6N58K/α3]β4 (Homo sapiens, UniProt P30926+P32297+Q15825, N91K); type: cell-based
T3 construct: formed by splicing the N-terminal extracellular domain of the α6 subunit with the α3 subunit; human nAChR α3 subunit (CHRNA3); expressed in transfected cells; host or cells: Xenopus laevis oocytes injected with cRNA (plasmids from the University of Utah)

human α6/α3β2β3 nAChR = settings: cited from earlier work
hα6/α3β4V53I = target: T4, hα6/α3β4V53I (Homo sapiens, UniProt P30926+Q15825, V79I); type: cell-based
T4 construct: splicing the N-terminal extracellular domain of the α6 subunit with the α3 subunit; mutant made by PCR mutagenesis; host or cells: Xenopus laevis oocytes injected with cRNA

hα6/α3β4 = target: T5, hα6/α3β4 (Homo sapiens, UniProt P30926+P32297+Q15825); assay: cell-based; type: cell-based
T5 construct: splicing the N-terminal extracellular domain of the α6 subunit with the α3 subunit; host or cells: Xenopus laevis oocytes injected with cRNA (1:1)
T5 sequence (Q15825+P32297 fused with the stated changes): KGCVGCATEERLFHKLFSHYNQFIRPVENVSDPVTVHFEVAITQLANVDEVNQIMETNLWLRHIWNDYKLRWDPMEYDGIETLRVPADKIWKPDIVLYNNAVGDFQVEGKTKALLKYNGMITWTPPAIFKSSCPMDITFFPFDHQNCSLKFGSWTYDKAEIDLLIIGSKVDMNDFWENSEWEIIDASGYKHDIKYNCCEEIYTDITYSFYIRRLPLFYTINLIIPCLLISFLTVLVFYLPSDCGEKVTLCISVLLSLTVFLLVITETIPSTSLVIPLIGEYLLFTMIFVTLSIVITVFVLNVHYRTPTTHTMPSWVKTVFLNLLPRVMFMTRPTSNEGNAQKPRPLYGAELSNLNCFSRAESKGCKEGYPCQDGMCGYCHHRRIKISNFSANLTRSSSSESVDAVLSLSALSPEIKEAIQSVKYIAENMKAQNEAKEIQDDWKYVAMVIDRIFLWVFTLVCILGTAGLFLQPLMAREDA
T5 sequence (P30926 22-498): as the sequence (P30926 22-498 V141I) above, with I120V counted along it

hα6/α3β4S165I = target: T6, hα6/α3β4S165I (Homo sapiens, UniProt P30926+Q15825, S191I); type: cell-based
T6 construct: formed by splicing the N-terminal extracellular domain of the α6 subunit with the α3 subunit; human nAChR α3 subunit (CHRNA3); expressed in transfected cells; host or cells: Xenopus laevis oocytes injected with cRNA (plasmids from the University of Utah)

h[α6I176V/α3]β4 = target: T7, h[α6I176V/α3]β4 (Homo sapiens, UniProt P30926+P32297+Q15825, I209V); type: cell-based
T7 construct: formed by splicing the N-terminal extracellular domain of the α6 subunit with the α3 subunit; fusion partner: remainder of the human α3 subunit (CHRNA3); expressed in transfected cells; host or cells: Xenopus laevis oocytes injected with cRNA

hα6/α3β4A37S = target: T8, hα6/α3β4A37S (Homo sapiens, UniProt P30926+Q15825, A63S); type: cell-based
T8 construct: splicing the N-terminal extracellular domain of the α6 subunit with the α3 subunit; mutant made by PCR mutagenesis; host or cells: Xenopus laevis oocytes injected with cRNA

hα6/α3β4L107V = target: T9, hα6/α3β4L107V (Homo sapiens, UniProt P30926+Q15825, L133V); assay: cell-based
T9 construct: splicing the N-terminal extracellular domain of the α6 subunit with the α3 subunit; mutant made by PCR mutagenesis; host or cells: Xenopus laevis oocytes injected with cRNA
T9 sequence (Q15825 26-239 limits assumed): as the sequence (Q15825 26-239 limits assumed) above
T9 sequence (P30926 22-498 L133V): as the sequence (P30926 22-498 V141I) above, with L112V, I120V counted along it

hα6/α3β4Y133H = target: T10, hα6/α3β4Y133H (Homo sapiens, UniProt P30926+Q15825, Y159H); type: cell-based
T10 construct: splicing the N-terminal extracellular domain of the α6 subunit with the α3 subunit; mutant made by PCR mutagenesis; host or cells: Xenopus laevis oocytes injected with cRNA

h[α6V32L, K61R/α3]β4 = type: cell-based, human
rα6/α3β4 = target: T11, rα6/α3β4 (Rattus norvegicus, UniProt P04757+P12392+P43143); type: cell-based
T11 construct: formed by splicing the N-terminal extracellular domain of the α6 subunit with the α3 subunit; fusion partner: remainder of the rat α3 subunit (Chrna3); expressed in transfected cells; host or cells: Xenopus laevis oocytes injected with cRNA

hα6/α3β4T161S = target: T12, hα6/α3β4T161S (Homo sapiens, UniProt P30926+Q15825, T187S); type: cell-based
T12 construct: formed by splicing the N-terminal extracellular domain of the α6 subunit with the α3 subunit; human nAChR α3 subunit (CHRNA3); expressed in transfected cells; host or cells: Xenopus laevis oocytes injected with cRNA (plasmids from the University of Utah)

h[α6I56V/α3]β4 = target: T13, h[α6I56V/α3]β4 (Homo sapiens, UniProt P30926+P32297+Q15825, I89V); type: cell-based
T13 construct: formed by splicing the N-terminal extracellular domain of the α6 subunit with the α3 subunit; human nAChR α3 subunit (CHRNA3); expressed in transfected cells; host or cells: Xenopus laevis oocytes injected with cRNA (plasmids from the University of Utah)
T13 sequence (P30926 whole entry, looked up, stated change not applied, the tested form may be a part): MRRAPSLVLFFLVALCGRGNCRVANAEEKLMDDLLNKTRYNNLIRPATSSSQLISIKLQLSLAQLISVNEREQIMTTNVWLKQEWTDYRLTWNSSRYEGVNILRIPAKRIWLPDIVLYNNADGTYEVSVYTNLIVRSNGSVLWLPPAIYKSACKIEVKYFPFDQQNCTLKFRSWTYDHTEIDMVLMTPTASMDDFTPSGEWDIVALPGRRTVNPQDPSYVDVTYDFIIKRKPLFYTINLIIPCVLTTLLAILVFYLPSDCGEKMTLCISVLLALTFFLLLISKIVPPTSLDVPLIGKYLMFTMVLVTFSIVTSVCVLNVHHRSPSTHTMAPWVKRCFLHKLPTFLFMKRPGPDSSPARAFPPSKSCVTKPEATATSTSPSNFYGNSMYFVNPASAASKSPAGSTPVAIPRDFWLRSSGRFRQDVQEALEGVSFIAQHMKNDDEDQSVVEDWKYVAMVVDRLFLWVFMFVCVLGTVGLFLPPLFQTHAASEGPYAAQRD
T13 sequence (P32297 whole entry, looked up, stated change not applied, the tested form may be a part): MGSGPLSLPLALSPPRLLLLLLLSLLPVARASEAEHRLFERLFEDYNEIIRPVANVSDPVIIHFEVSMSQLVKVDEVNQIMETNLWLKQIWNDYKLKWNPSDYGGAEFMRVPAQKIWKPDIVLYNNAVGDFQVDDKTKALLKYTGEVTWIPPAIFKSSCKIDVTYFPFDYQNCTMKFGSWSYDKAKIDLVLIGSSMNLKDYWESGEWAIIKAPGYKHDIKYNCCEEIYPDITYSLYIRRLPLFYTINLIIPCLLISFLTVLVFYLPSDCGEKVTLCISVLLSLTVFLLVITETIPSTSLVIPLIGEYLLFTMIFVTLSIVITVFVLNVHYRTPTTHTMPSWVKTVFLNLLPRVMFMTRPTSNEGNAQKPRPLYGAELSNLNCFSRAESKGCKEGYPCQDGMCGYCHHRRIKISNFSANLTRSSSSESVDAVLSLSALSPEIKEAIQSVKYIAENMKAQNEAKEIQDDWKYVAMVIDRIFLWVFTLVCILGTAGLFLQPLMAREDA
T13 sequence (Q15825 whole entry, looked up, stated change not applied, the tested form may be a part): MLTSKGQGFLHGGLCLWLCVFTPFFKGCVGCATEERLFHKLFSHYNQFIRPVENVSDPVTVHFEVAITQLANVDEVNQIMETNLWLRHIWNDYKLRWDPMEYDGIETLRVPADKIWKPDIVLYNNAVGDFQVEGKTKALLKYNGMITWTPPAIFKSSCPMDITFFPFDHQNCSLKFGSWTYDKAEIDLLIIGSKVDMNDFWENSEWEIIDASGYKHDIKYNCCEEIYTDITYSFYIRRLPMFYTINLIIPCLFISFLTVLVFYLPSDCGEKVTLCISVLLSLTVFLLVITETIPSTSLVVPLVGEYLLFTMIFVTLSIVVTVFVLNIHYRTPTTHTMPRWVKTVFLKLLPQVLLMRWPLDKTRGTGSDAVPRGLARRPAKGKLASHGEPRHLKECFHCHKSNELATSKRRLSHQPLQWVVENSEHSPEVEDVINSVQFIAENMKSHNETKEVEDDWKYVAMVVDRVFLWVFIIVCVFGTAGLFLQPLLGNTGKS

h[α6K61R/α3]β4 = target: T14, h[α6K61R/α3]β4 (Homo sapiens, UniProt P30926+P32297+Q15825, K94R); assay: cell-based
T14 construct: formed by splicing the N-terminal extracellular domain of the α6 subunit with the α3 subunit; human nAChR α3 subunit (CHRNA3); expressed in transfected cells; host or cells: Xenopus laevis oocytes injected with cRNA (plasmids from the University of Utah)
T14 sequence (Q15825+P32297 fused with the stated changes): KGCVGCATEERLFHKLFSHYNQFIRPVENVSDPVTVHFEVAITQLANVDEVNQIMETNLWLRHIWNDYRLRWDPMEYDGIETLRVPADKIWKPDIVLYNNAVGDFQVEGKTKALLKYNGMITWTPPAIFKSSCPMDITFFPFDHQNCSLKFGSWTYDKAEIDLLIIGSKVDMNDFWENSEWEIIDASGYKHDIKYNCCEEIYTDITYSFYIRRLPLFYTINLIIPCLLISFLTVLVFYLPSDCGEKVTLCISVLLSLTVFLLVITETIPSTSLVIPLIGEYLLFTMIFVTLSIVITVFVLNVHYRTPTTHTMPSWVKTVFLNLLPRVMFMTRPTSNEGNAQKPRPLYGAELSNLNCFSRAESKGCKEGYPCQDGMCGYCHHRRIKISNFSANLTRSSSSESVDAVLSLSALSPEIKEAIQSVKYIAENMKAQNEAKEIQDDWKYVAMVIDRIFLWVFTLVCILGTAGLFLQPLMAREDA
T14 sequence (P30926 22-498): as the sequence (P30926 22-498 V141I) above, with I120V counted along it

h[α6V32L/α3]β4 = target: T15, h[α6V32L/α3]β4 (Homo sapiens, UniProt P30926+P32297+Q15825, V65L); assay: cell-based
T15 construct: formed by splicing the N-terminal extracellular domain of the α6 subunit with the α3 subunit; human nAChR α3 subunit (CHRNA3); expressed in transfected cells; host or cells: Xenopus laevis oocytes injected with cRNA (plasmids from the University of Utah)

[3] = read-out: inhibition of the current response to 100 μM ACh

CC(C)C[C@@H]1NC(=O)[C@H](CC(=O)O)NC(=O)[C@@H]2CCCN2C(=O)[C@H](Cc2c[nH]cn2)NC(=O)[C@H](CCCCN)NC(=O)[C@H](CC(N)=O)NC(=O)[C@H](CCCNC(=N)N)NC(=O)[C@@H]2CSSC[C@H](NC(=O)CN)C(=O)N[C@@H](CSSC[C@@H](C(N)=O)NC1=O)C(=O)N[C@@H](CO)C(=O)N[C@@H](CC(=O)O)C(=O)N1CCC[C@H]1C(=O)N1CCC[C@H]1C(=O)N2 [TxIB] (H-GCCSDPPCRNKHPDLC-NH2; disulfide 2-8, 3-16)
Hill Slope (hα6/α3β4V115I): 0.8 (0.7–0.9)
Ratio (change in TxIB IC50 relative to hα6/α3β4) (hα6/α3β4V115I): 2.8
activity at 10 µM (hα6/α3β4V115I; [3]): 20.1 ± 3.86%
Hill Slope (h[α6K81N/α3]β4 [1]): 0.8 (0.7–0.9)
Ratio (change in TxIB IC50 relative to hα6/α3β4) (h[α6K81N/α3]β4 [2]): 1.2
Hill Slope (h[α6N58K/α3]β4): 0.9 (0.8–1.1)
Ratio (change in TxIB IC50 relative to hα6/α3β4) (h[α6N58K/α3]β4): 0.9
blocking effect (human α6/α3β2β3 nAChR): significant blocking effect
Hill Slope (hα6/α3β4V53I): 0.8 (0.7–0.9)
Ratio (change in TxIB IC50 relative to hα6/α3β4) (hα6/α3β4V53I): 1.1
Hill Slope (hα6/α3β4): 0.8 (0.8–0.9)
Ratio (change in TxIB IC50 relative to hα6/α3β4) (hα6/α3β4): 1
blocking effect (hα6/α3β4): completely blocked
variation of activity between human and murine nAChRs (hα6/α3β4): more than 30 fold
activity at 10 µM (hα6/α3β4; [3]): 11 ± 5.9%
Hill Slope (hα6/α3β4S165I): 0.7 (0.6–0.9)
Ratio (change in TxIB IC50 relative to hα6/α3β4) (hα6/α3β4S165I): 1
Hill Slope (h[α6I176V/α3]β4): 0.8 (0.7–0.9)
Ratio (change in TxIB IC50 relative to hα6/α3β4) (h[α6I176V/α3]β4): 0.8
Hill Slope (hα6/α3β4A37S): 0.9 (0.8–1.0)
Ratio (change in TxIB IC50 relative to hα6/α3β4) (hα6/α3β4A37S): 1.1
Hill Slope (hα6/α3β4L107V): 0.8 (0.7–0.9)
Ratio (change in TxIB IC50 relative to hα6/α3β4) (hα6/α3β4L107V): 3.3
activity at 10 µM (hα6/α3β4L107V; [3]): 21.7 ± 4.29%
Hill Slope (hα6/α3β4Y133H): 0.8 (0.7–1.0)
Ratio (change in TxIB IC50 relative to hα6/α3β4) (hα6/α3β4Y133H): 1.3
Ratio (change in TxIB IC50 relative to hα6/α3β4) (h[α6V32L, K61R/α3]β4): 8.1
time to full restoration of currents blocked by TxIB (h[α6V32L, K61R/α3]β4): ≤ 1 min
IC50 (h[α6V32L, K61R/α3]β4; read-out: IC50): 4.3 µM
IC50 (h[α6V32L, K61R/α3]β4; read-out: IC50 (95% CI)): 4.34 µM
activity (h[α6V32L, K61R/α3]β4; [3]): 31.9 ± 8.05%
blocking effect (rα6/α3β4): almost no blocking effect
Hill Slope (hα6/α3β4T161S): 0.8 (0.6–0.9)
Ratio (change in TxIB IC50 relative to hα6/α3β4) (hα6/α3β4T161S): 1.8
Hill Slope (h[α6I56V/α3]β4): 1.0 (0.9–1.2)
Ratio (change in TxIB IC50 relative to hα6/α3β4) (h[α6I56V/α3]β4): 0.9
Hill Slope (h[α6K61R/α3]β4): 0.8 (0.7–0.9)
Ratio (change in TxIB IC50 relative to hα6/α3β4) (h[α6K61R/α3]β4): 3.4
activity at 10 µM (h[α6K61R/α3]β4; [3]): 22.1 ± 4.7%
Hill Slope (h[α6V32L/α3]β4): 0.7 (0.7–0.8)

From publication PMC10218596 (International Journal of Molecular Sciences, 2023)
